Data: paper PMC7010025 (EFSA Journal, 2017)
Values after ≈ are worked out from the molar mass of the structure shown. “Also recorded” adds a separate entry of the source. Like-named read-outs stand apart in the source and are kept apart here.

Experiments:
[1] = test system: S. Typhimurium TA98, TA100, TA1535, TA1537 Escherichia coli WP2uvrA; details: ref Nucro‐Technics, 2011a, cited from earlier work; for Increase in colony counts per plate vs negative controls: positive controls
[2] = cited from earlier work; for Decarboxylation product concentration: starting batch held ~0.4% S9379
[3] = test system: primary human lymphocytes; details: ref Nucro‐Technics, 2011b, cited from earlier work; for Cells with structural chromosomal aberrations: 20 h without S9‐mix
[4] = cited from earlier work; for Dry powder stability: 100°C up to 24 h
[5] = oral dosing in rat; ref Senomyx, 2011b; cited from earlier work
[6] = male and female rats, highest dose tested; ref MPI, 2011b; cited from earlier work
[7] = human, 60‐min incubation; ref PharmOptima, 2011; cited from earlier work
[8] = read-out: Combined mean Cmax; diet 100 mg/kg per day, day 7; ref MPI, 2011b; cited from earlier work
[9] = gavage, gestation days 6 through 20; ref WIL Research, 2012a; cited from earlier work
[10] = test system: bone marrow polychromatic erythrocytes; details: ref Nucro‐Technics, 2011c, cited from earlier work
[11] = rat, 60‐min incubation; ref PharmOptima, 2011; cited from earlier work
[12] = 10 mg/kg oral, ref Senomyx, 2013, cited from earlier work; for Average recovered from faeces and urine: 72‐h collection
[13] = ref applicant dossier, cited from earlier work
[14] = ref WIL Research, 2012b; cited from earlier work
[15] = test system: Salmonella Typhimurium strains, TA98 and TA100; details: up to 5,000 μg/plate, ref BioReliance, 2011, cited from earlier work
Margins of safety = details: child; developmental toxicity NOAEL vs chronic APET
[16] = ref Senomyx, 2011a, cited from earlier work
[17] = cake, 177°C 30 min, ref Senomyx, 2016
[18] = cookie, 204°C 8 min, ref Senomyx, 2016
[19] = hard candy, 149°C ~30 min, ref Senomyx, 2016
[20] = sulfate salt in sugar cookie, 177°C 10 min, 18 mg/kg
[21] = cake, 177°C 30 min, nominal 5 mg/kg, ref Senomyx, 2016
[22] = cookie, 204°C 8 min, nominal 5 mg/kg, ref Senomyx, 2016
[23] = hard candy, 149°C ~30 min, nominal 15 mg/kg, ref Senomyx, 2016
[24] = 100 mg/kg per day gavage, day 7

SMILES: Nc1ccc2cc3ccccc3cc2c1 [2‐aminoanthracene]
- Increase in colony counts per plate vs negative controls ([1]; experiments with S9‐mix): ≥ 3.1 fold

SMILES: O=[N+]([O-])c1ccc2c(c1)Cc1ccccc1-2 [2‐nitrofluorene]
- Increase in colony counts per plate vs negative controls ([1]; experiments without S9‐mix): ≥ 3.1 fold

SMILES: Nc1c2ccccc2nc2ccccc12 [9‐aminoacridine]
- Increase in colony counts per plate vs negative controls ([1]; experiments without S9‐mix): ≥ 3.1 fold

SMILES: Cc1cc(N)c2c(OCC(C)(C)C(=O)NC(C)C)cccc2n1 [S9379, 4‐amino‐5‐(3‐(isopropylamino)‐2,2‐dimethyl‐3‐oxopropoxy)‐2‐methylquinoline]
- Decarboxylation product, % of [FL‐no: 16.130] nominal [2, 17]: 0.82%
- Decarboxylation product concentration [2, 17]: 0.041 mg/kg
- Breakdown product S9379, % of nominal [FL‐no: 16.130] concentration ([2]; cake, cookie and candy prototypes): < 1%
- Decarboxylation product, % of [FL‐no: 16.130] nominal [2, 18]: 0.86%
- Decarboxylation product concentration [2, 18]: 0.043 mg/kg
- Decarboxylation product, % of [FL‐no: 16.130] nominal [2, 19]: 0.94%
- Decarboxylation product concentration [2, 19]: 0.14 mg/kg
- Concentration of potential degradant S9379 ([2]; sulfate salt in hard candy, nominal 24 mg/kg): 0.04 mg/kg
- Concentration of potential degradant S9379 [2, 20]: 0.02 mg/kg
- S9379, % of nominal sulfate salt concentration [2, 20]: 0.1%

SMILES: Cc1nc2cccc(OCC(C)(C)C(=O)NC(C)C)c2c(N)c1C(=O)[O-].[Na+] [[FL‐no: 16.130] sodium salt, sodium 4‐amino‐5‐(3‐(isopropylamino)‐2,2‐dimethyl‐3‐oxopropoxy)‐2‐methylquinoline‐3‐carboxylate]
- Toxicity to tester strains ([1]; any concentration including 5,000 μg per plate): No toxicity was observed
- Bacterial gene mutation assay result ([1]; plate incorporation and pre‐incubation, with and without metabolic activation, up to 5,000 μg/plate): Negative
- Cells with chromosomal aberrations ([3]; 3 h with S9‐mix, 125 μg/mL (control 3.5%)): 5.0%
- Cells with chromosomal aberrations ([3]; 3 h with S9‐mix, 250 μg/mL): 4.0%
- Cells with chromosomal aberrations ([3]; 3 h without S9‐mix, 250 μg/mL): 2.0%
- Cells with structural chromosomal aberrations ([3]; 125 μg/mL (control 1.5%)): 2.0%
- Cells with structural chromosomal aberrations ([3]; 250 μg/mL): 1.0%
- Cells with structural chromosomal aberrations ([3]; 500 μg/mL): 3.0%

SMILES: Cc1nc2cccc(OCC(C)(C)C(=O)NC(C)C)c2c(N)c1C(=O)O.Cc1nc2cccc(OCC(C)(C)C(=O)NC(C)C)c2c(N)c1C(=O)O.O.O.O=S(=O)(O)O [[FL‐no: 16.130] sulfate salt, 4‐Amino‐5‐(3‐(isopropylamino)‐2,2‐dimethyl‐3‐oxopropoxy)‐2‐methylquinoline‐3‐carboxylic acid hemisulfate monohydrate salt]
- Dry powder stability ([4]; ref Senomyx, 2016): stable
- Bioequivalence to the candidate substance (systemic exposure) [5]: equivalent
- Recovery ([2]; sulfate salt in hard candy, 149°C ~30 min, nominal 24 mg/kg): 104%
- Recovery [2, 20]: 100%

SMILES: Cc1nc2cccc(OCC(C)(C)C(=O)NC(C)C)c2c(N)c1C(=O)O [[FL‐no: 16.130], 4‐Amino‐5‐(3‐(isopropylamino)‐2,2‐dimethyl‐3‐oxopropoxy)‐2‐methylquinoline‐3‐carboxylic acid]
- Stability in aqueous solution ([4]; 40°C, pH 2.8, 4.0 and 7.1, 4 weeks, ref applicant dossier): stable
- Dry powder stability ([4]; ref Senomyx, 2016): stable
- Dry powder stability at 175°C ([4]; 175°C, S9379 only decomposition product, ref Senomyx, 2016): thermal degradation may take place
- NOAEL following 13 weeks of dietary administration [6]: 100 mg/kg bw per day
- Metabolism by microsomes [7]: not metabolised
- Cmax [8]: 317 nM
- Result, dose range‐finding developmental toxicity study [9]: 1,000 mg/kg bw per day
- PCE/NCE ratio ([10]; any dose tested): No statistically significant decrease
- In vivo micronucleus test result ([10]; single oral gavage, 500, 1,000 and 2,000 mg/kg bw, 24, 36, 48 h, no evidence of bone marrow exposure): did not induce micronuclei; also recorded: Negative
- Metabolism by microsomes [11]: not metabolised
- Mean measured concentration [2, 21]: 5.8 mg/kg
- Measured concentration [2, 21]: 5.1 to 6.1 mg/kg
- Stability in model product prototypes ([2]; cake, cookie and candy, typical processing conditions): stable
- Mean measured concentration [2, 22]: 5.4 mg/kg
- Measured concentration [2, 22]: 5.1 to 5.8 mg/kg
- Mean measured concentration [2, 23]: 13.1 mg/kg
- Measured concentration [2, 23]: 12.7 to 13.4 mg/kg
- Recovery, % of nominal concentration [2, 23]: 87%
- Recovered in faeces [12]: 75.5–99.5%
- Recovered in urine [12]: 0.1–0.6%
- Average recovered from faeces and urine ([12]; female rats): 91.4%
- Average recovered from faeces and urine ([12]; male rats): 86.2%
- Solubility in ethanol ([13]; 95% ethanol): 1,600 mg/L
- Solubility ([13]; in water): 700 µg/mL (≈ 1950 µM)
- NOAEL, developmental toxicity study in the rat [14]: 1,000 mg/kg bw per day
- Bacterial gene mutation assay result ([15]; TA98, TA100, with and without S9‐mix): not mutagenic; also recorded: Negative
- Bacterial toxicity [15]: did not result in bacterial toxicity
- Margin of safety (Margins of safety): 27,000
- Combined mean AUC0–24 [16, 24]: 232 ng·h/mL
- Combined mean Cmax [16, 24]: 154 ng/mL
- Oral bioavailability (%F) ([16]; oral gavage, male and female rats, listed as candidate substance): 0.53–1.19%
- Accumulation in plasma ([16]; repeated oral dosing, seven consecutive days): No significant accumulation

SMILES: c1ccc2c(c1)cc1ccc3cccc4ccc2c1c34 [benzo[α]pyrene]
- Increase in colony counts per plate vs negative controls ([1]; experiments with S9‐mix): ≥ 3.1 fold

SMILES: O=P1(N(CCCl)CCCl)NCCCO1 (stereo not shown) [cyclophosphamide monohydrate]
- Increase in colony counts per plate vs negative controls ([1]; experiments with S9‐mix): ≥ 3.1 fold

SMILES: COS(C)(=O)=O [methyl methanesulfonate]
- Increase in colony counts per plate vs negative controls ([1]; experiments without S9‐mix): ≥ 3.1 fold

SMILES: [N-]=[N+]=[N-].[Na+] [sodium azide]
- Increase in colony counts per plate vs negative controls ([1]; experiments without S9‐mix): ≥ 3.1 fold
